# In patent US11535643B2, “Macrolides with modified desosamine sugars and uses thereof” (President and Fellows of Harvard College, priority 2015, dated 2022):
# Like-named read-outs stand apart in the source and are kept apart here.
# What was measured:
# Assay type in all cases: cell-based
# E. faecalis = experiment: Broth dilution MIC determination (CLSI) against E. faecalis strains; settings: for MIC: Enterococcus faecalis
# How it was run: (§1)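 MICs were determined by CLSI standard broth dilution against multiple strains, including multidrug-resistant isolates, with emphasis on macrolide resistance mechanisms. Azithromycin and solithromycin served as control compounds.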
# S. pneumoniae = experiment: Broth dilution MIC determination (CLSI) against S. pneumoniae strains; settings: for MIC: Streptococcus pneumoniae
# How it was run: as §1
# S. pyogenes = experiment: Broth dilution MIC determination (CLSI) against S. pyogenes strains; settings: for MIC: Streptococcus pyogenes
# How it was run: as §1
# E. coli = experiment: Broth dilution MIC determination (CLSI) against E. coli strains; settings: for MIC: Escherichia coli
# How it was run: as §1
# H. influenzae = experiment: Broth dilution MIC determination (CLSI) against H. influenzae strains; settings: for MIC: Haemophilus influenzae
# Excerpt: Minimum inhibitory concentrations (MICs) for macrolides described herein have been determined for unique strains of S. aureus, S. pneumoniae, S. pyogenes, E. faecalis, E. coli, A. baumannii, K. pneumoniae, P. aeruginosa, and H. influenzae, including several multidrug-resistant strains, with a special focus on macrolide resistant mechanisms. Azithromycin and solithromycin were included as control compounds. CLSI standard procedures for broth dilution MIC determination were used. Data for exemplary compounds described herein is shown in Tables M1-M7 and in Tables N1-N4.
# P. aeruginosa = experiment: Broth dilution MIC determination (CLSI) against P. aeruginosa strains; settings: for MIC: Pseudomonas aeruginosa
# How it was run: as §1
# A. baumannii = experiment: Broth dilution MIC determination (CLSI) against A. baumannii strains; settings: for MIC: Acinetobacter baumannii
# How it was run: as §1
# S. aureus = experiment: Broth dilution MIC determination (CLSI) against S. aureus strains; settings: for MIC: Staphylococcus aureus
# How it was run: as §1
# K. pneumoniae = experiment: Broth dilution MIC determination (CLSI) against K. pneumoniae strains; settings: for MIC: Klebsiella pneumoniae
# How it was run: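 CLSI broth-dilution MICs across a panel including multidrug- and macrolide-resistant strains, with azithromycin and solithromycin as control compounds.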
# [1] = ATCC29212, ATCC29212, read-out: MIC E. faecalis ATCC29212
# [2] = Vancomycin-resistant, read-out: MIC E. faecalis Vancomycin-resistant
# [3] = ATCC49619, ATCC49619, read-out: MIC S. pneumoniae ATCC49619
# [4] = erm B + mef A genotype, read-out: MIC S. pneumoniae erm B + mef A genotype
# [5] = erm B + tet(M, O) genotype, read-out: MIC S. pneumoniae erm B + tet(M, O) genotype
# [6] = read-out: MIC S. pneumoniae mef A genotype, mef A genotype
# [7] = read-out: MIC S. pneumoniae mef A genotype, mef A genotype, first of two such columns (c3)
# [8] = ATCC19615, ATCC19615, read-out: MIC S. pyogenes ATCC19615
# [9] = macrolide-resistant, read-out: MIC S. pyogenes macrolide-resistant
# [10] = ATCC25922, ATCC25922, read-out: MIC E. coli ATCC25922
# [11] = read-out: MIC E. coli NDM-1, NDM-1
# [12] = ATCC49247, ATCC49247, read-out: MIC H. influenzae ATCC49247
# [13] = erythro > 4, azithro 1, read-out: MIC H. influenzae erythro > 4, azithro 1
# [14] = ATCC27853, read-out: MIC P. aeruginosa ATCC27853
# [15] = ATCC19606, ATCC19606, read-out: MIC A. baumannii ATCC19606
# [16] = imipenem-resistant, read-out: MIC A. baumannii imipenem-resistant
# [17] = ATCC29213, ATCC29213, read-out: MIC S. aureus ATCC29213
# [18] = MRSA / USA100, MRSA: USA100, read-out: MIC S. aureus MRSA: USA100
# [19] = MRSA / USA300, MRSA: USA300, read-out: MIC S. aureus MRSA: USA300
# [20] = USA600, USA600, GISA, read-out: MIC S. aureus USA600, GISA
# [21] = read-out: MIC S. aureus erm A genotype
# [22] = ATCC10031, ATCC10031, read-out: MIC K. pneumoniae ATCC10031
# [23] = KPC-2, read-out: MIC K. pneumoniae KPC-2
compound,measurement,setting,value
CCC1OC(=O)C(C)C(=O)C(C)C(OC2OC(COC(=O)c3ccccc3)C(O)C(N(C)C)C2O)C(C)(OC)CC(C)CNC(C)C2N(CCCCn3cc(-c4cccc(N)c4)nn3)C(=O)OC12C (centres unmarked) [FSM-21797],MIC E. faecalis ATCC29212,E. faecalis,32 µg/mL
same,MIC E. faecalis Vancomycin-resistant,E. faecalis; Vancomycin-resistant,>32 µg/mL
same,MIC S. pneumoniae ATCC49619,S. pneumoniae,32 µg/mL
same,MIC S. pneumoniae erm B + mef A genotype,S. pneumoniae; erm B + mef A genotype,>32 µg/mL
same,"MIC S. pneumoniae erm B + tet(M, O) genotype","S. pneumoniae; erm B + tet(M, O) genotype",16 µg/mL
same,MIC S. pyogenes ATCC19615,S. pyogenes,8 µg/mL
same,MIC S. pyogenes macrolide-resistant,S. pyogenes; macrolide-resistant,32 µg/mL
same,MIC E. coli ATCC25922,E. coli,>32 µg/mL
same,MIC E. coli NDM-1,E. coli,>32 µg/mL
same,MIC H. influenzae ATCC49247,H. influenzae,>32 µg/mL
same,"MIC H. influenzae erythro > 4, azithro 1","H. influenzae; erythro > 4, azithro 1",>32 µg/mL
same,MIC P. aeruginosa ATCC27853,P. aeruginosa; ATCC27853,>32 µg/mL
same,MIC A. baumannii ATCC19606,A. baumannii,>32 µg/mL
same,MIC A. baumannii imipenem-resistant,A. baumannii; imipenem-resistant,>32 µg/mL
same,MIC S. aureus ATCC29213,S. aureus,>32 µg/mL
same,MIC S. aureus MRSA: USA100,S. aureus,>32 µg/mL
same,MIC S. aureus MRSA: USA300,S. aureus,>32 µg/mL
same,"MIC S. aureus USA600, GISA",S. aureus,>32 µg/mL
same,MIC S. aureus erm A genotype,S. aureus,>32 µg/mL
same,MIC K. pneumoniae ATCC10031,K. pneumoniae,>32 µg/mL
same,MIC K. pneumoniae KPC-2,K. pneumoniae; KPC-2,>32 µg/mL
CCC1OC(=O)C(C)(F)C(=O)C(C)C(OC2OC(COC(=O)c3ccccc3)C(O)C(N(C)C)C2O)C(C)(OC)CC(C)CNC(C)C2N(CCCCn3cc(-c4cccc(N)c4)nn3)C(=O)OC12C (centres unmarked) [FSM-21798],MIC E. faecalis ATCC29212,E. faecalis,32 µg/mL
same,MIC E. faecalis Vancomycin-resistant,E. faecalis; Vancomycin-resistant,>32 µg/mL
same,MIC S. pneumoniae ATCC49619,S. pneumoniae,>32 µg/mL
same,MIC S. pneumoniae erm B + mef A genotype,S. pneumoniae; erm B + mef A genotype,>32 µg/mL
same,"MIC S. pneumoniae erm B + tet(M, O) genotype","S. pneumoniae; erm B + tet(M, O) genotype",>32 µg/mL
same,MIC S. pyogenes ATCC19615,S. pyogenes,8 µg/mL
same,MIC S. pyogenes macrolide-resistant,S. pyogenes; macrolide-resistant,32 µg/mL
same,MIC E. coli ATCC25922,E. coli,>32 µg/mL
same,MIC E. coli NDM-1,E. coli,>32 µg/mL
same,MIC H. influenzae ATCC49247,H. influenzae,>32 µg/mL
same,"MIC H. influenzae erythro > 4, azithro 1","H. influenzae; erythro > 4, azithro 1",>32 µg/mL
same,MIC P. aeruginosa ATCC27853,P. aeruginosa; ATCC27853,>32 µg/mL
same,MIC A. baumannii ATCC19606,A. baumannii,>32 µg/mL
same,MIC A. baumannii imipenem-resistant,A. baumannii; imipenem-resistant,>32 µg/mL
same,MIC S. aureus ATCC29213,S. aureus,>32 µg/mL
same,MIC S. aureus MRSA: USA100,S. aureus,>32 µg/mL
same,MIC S. aureus MRSA: USA300,S. aureus,>32 µg/mL
same,"MIC S. aureus USA600, GISA",S. aureus,>32 µg/mL
same,MIC S. aureus erm A genotype,S. aureus,>32 µg/mL
same,MIC K. pneumoniae ATCC10031,K. pneumoniae,>32 µg/mL
same,MIC K. pneumoniae KPC-2,K. pneumoniae; KPC-2,>32 µg/mL
CC[C@H]1OC(=O)[C@H](C)C(=O)[C@H](C)[C@@H](O[C@@H]2OC(CNC(=O)C(Cl)Cl)CC(N(C)C)C2O)[C@](C)(OC)C[C@@H](C)CN[C@H](C)[C@H]2N(CCCCn3cc(-c4cccc(N)c4)nn3)C(=O)O[C@]12C (some centres unmarked) [FSM-21842],MIC,E. faecalis; [1],1 µg/mL
same,MIC,E. faecalis; [2],> 32 µg/mL
same,MIC,S. pneumoniae; [3],≤ 0.0312 µg/mL
same,MIC,S. pneumoniae; [4],8 µg/mL
same,MIC,S. pneumoniae; [5],≤ 0.0312 µg/mL
same,MIC,S. pneumoniae; [6],1 µg/mL
same,MIC,S. pneumoniae; [7],0.125 µg/mL
same,MIC,S. pyogenes; [8],≤ 0.0312 µg/mL
same,MIC,S. pyogenes; [9],0.5 µg/mL
same,MIC,E. coli; [10],16 µg/mL
same,MIC,"E. coli; read-out: MIC E. coli CTX-M-14, CTX-M-14",> 32 µg/mL
same,MIC,E. coli; [11],32 µg/mL
same,MIC,"E. coli; read-out: MIC E. coli TEM-1, TEM-1",16 µg/mL
same,MIC,H. influenzae; [12],4 µg/mL
same,MIC,H. influenzae; [13],4 µg/mL
same,MIC,P. aeruginosa; [14],> 32 µg/mL
same,MIC,P. aeruginosa; read-out: MIC P. aeruginosa HPA101-1477,> 32 µg/mL
same,MIC,A. baumannii; [15],32 µg/mL
same,MIC,"A. baumannii; IMP-4, read-out: MIC A. baumannii IMP-4",> 32 µg/mL
same,MIC,"A. baumannii; chromosomal class C, read-out: MIC A. baumannii chromosomal class C",> 32 µg/mL
same,MIC,A. baumannii; [16],> 32 µg/mL
same,MIC,S. aureus; [17],4 µg/mL
same,MIC,S. aureus; [18],> 32 µg/mL
same,MIC,S. aureus; [19],> 32 µg/mL
same,MIC,S. aureus; [20],> 32 µg/mL
same,MIC,S. aureus; [21],> 32 µg/mL
same,MIC,K. pneumoniae; [22],4 µg/mL
same,MIC,K. pneumoniae; [23],> 32 µg/mL
same,MIC,"K. pneumoniae; SHV-12, read-out: MIC K. pneumoniae SHV-12",> 32 µg/mL
same,MIC,"K. pneumoniae; TEM-10, read-out: MIC K. pneumoniae TEM-10",32 µg/mL
CC[C@H]1OC(=O)[C@H](C)C(=O)[C@H](C)[C@@H](O[C@@H]2OC(CNC(=N)N)CC(N(C)C)C2O)[C@](C)(OC)C[C@@H](C)CN[C@H](C)[C@H]2N(CCCCn3cc(-c4cccc(N)c4)nn3)C(=O)O[C@]12C (some centres unmarked) [FSM-21843],MIC,E. faecalis; [1],> 32 µg/mL
same,MIC,E. faecalis; [2],> 32 µg/mL
same,MIC,S. pneumoniae; [3],0.5 µg/mL
same,MIC,S. pneumoniae; [4],32 µg/mL
same,MIC,S. pneumoniae; [5],0.25 µg/mL
same,MIC,S. pneumoniae; [6],8 µg/mL
same,MIC,S. pneumoniae; [7],4 µg/mL
same,MIC,S. pyogenes; [8],2 µg/mL
same,MIC,S. pyogenes; [9],8 µg/mL
same,MIC,E. coli; [10],> 32 µg/mL
same,MIC,E. coli; [11],> 32 µg/mL
same,MIC,H. influenzae; [12],32 µg/mL
same,MIC,H. influenzae; [13],32 µg/mL
same,MIC,P. aeruginosa; [14],> 32 µg/mL
same,MIC,A. baumannii; [15],> 32 µg/mL
same,MIC,A. baumannii; [16],> 32 µg/mL
same,MIC,S. aureus; [17],> 32 µg/mL
same,MIC,S. aureus; [18],> 32 µg/mL
same,MIC,S. aureus; [19],> 32 µg/mL
same,MIC,S. aureus; [20],> 32 µg/mL
same,MIC,S. aureus; [21],> 32 µg/mL
same,MIC,K. pneumoniae; [22],32 µg/mL
same,MIC,K. pneumoniae; [23],> 32 µg/mL
